Drawing on patent US20260184691A1, “INHIBITORS AND DEGRADERS OF PIP4K PROTEIN” (Larkspur Biosciences, Inc., priority 2022, published 2026), this text covers DC50 for 18 molecules.

This assay addresses T1, endogenous PIP4K2C C-terminally tagged with HiBiT peptide in MOLT-4 cells (Homo sapiens, UniProt Q8TBX8).
T1 construct: to C-terminally tag endogenous PIP4K2C with HiBiT peptide; host or cells: MOLT-4 (CRISPR-Cas9 knock-in clone)
T1 sequence (Q8TBX8 1-421): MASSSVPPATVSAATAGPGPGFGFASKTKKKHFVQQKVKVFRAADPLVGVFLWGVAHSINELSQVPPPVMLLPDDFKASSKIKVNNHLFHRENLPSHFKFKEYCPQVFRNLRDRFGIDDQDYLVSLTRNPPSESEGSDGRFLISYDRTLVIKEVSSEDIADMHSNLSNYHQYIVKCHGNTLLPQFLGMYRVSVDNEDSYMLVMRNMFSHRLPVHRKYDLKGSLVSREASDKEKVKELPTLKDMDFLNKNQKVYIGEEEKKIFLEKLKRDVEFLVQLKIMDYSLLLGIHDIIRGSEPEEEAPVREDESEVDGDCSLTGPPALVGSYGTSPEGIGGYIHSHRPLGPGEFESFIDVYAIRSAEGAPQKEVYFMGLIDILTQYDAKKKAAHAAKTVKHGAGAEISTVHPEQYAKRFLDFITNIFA
In words: HiBiT PIP4K2C degradation assay in MOLT-4 cells. The class given is cell-based. The settings on record: 24 hours, 10-point dose response, top concentration 10 micromolar, read-out: HiBIT-degradation MOLT4 PIP4k2C 24 hours DC50. The essentials:
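Cells bearing C-terminal HiBiT knock-in were exposed to a 10-point, 3-fold dilution series (top 10 micromolar, duplicate) for 24 h at 37C, 5% CO2. Remaining tagged protein read by lytic HiBiT luminescence; DC50 from Hill-equation fit.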
On the technique in general: HiBiT is a short tag that completes a luciferase, so light tracks the accessible tagged protein.

Structures are written as SMILES.

In general, DC50 refers to the concentration giving 50% degradation.

As for `O=C1CCC(Nc2ccc(N3CCC(N4CCN(CCC(=O)Nc5cncc(Nc6ncc(Cl)c(-c7cccc(-c8ccccc8)c7)n6)c5)CC4)CC3)cc2)C(=O)N1` (stereo not drawn) [Compound 183, N-(5-((4-([1,1′-biphenyl]-3-yl)-5-chloropyrimidin-2-yl)amino)pyridin-3-yl)-3-(4-(1-(4-((2,6-dioxopiperidin-3-yl)amino)phenyl)piperidin-4-yl)piperazin-1-yl)propanamide], the half-maximal degradation concentration (DC50) is under 500 nM.

For the molecule `O=C1CCC(Nc2ccc(C3CCN(C(=O)CN4CCC5(CC4)CCN(c4cncc(Nc6ncc(Cl)c(-c7cccc(C8CC8)c7)n6)c4)C5=O)CC3)cc2)C(=O)N1` (stereo not drawn) [Compound 200, 3-((4-(1-(2-(2-(5-((5-chloro-4-(3-cyclopropylphenyl)pyrimidin-2-yl)amino)pyridin-3-yl)-1-oxo-2,8-diazaspiro[4.5]decan-8-yl)acetyl)piperidin-4-yl)phenyl)amino)piperidine-2,6-dione], the 50% degradation concentration (DC50) was under 500 nM. Under `O=C1CCC(Nc2ccc(N3CCC(CC(=O)N4CCC5(CC4)CCN(c4cncc(Nc6ncc(Cl)c(N7CCC[C@@H](C(F)(F)F)C7)n6)c4)C5=O)CC3)cc2)C(=O)N1` (stereo partly drawn) [Compound 177, 3-((4-(4-(2-(2-(5-((5-chloro-4-((R)-3-(trifluoromethyl)piperidin-1-yl)pyrimidin-2-yl)amino)pyridin-3-yl)-1-oxo-2,8-diazaspiro[4.5]decan-8-yl)-2-oxoethyl)piperidin-1-yl)phenyl)amino)piperidine-2,6-dione] stands under 500 nM; under `O=C1CCC(N2Cc3cc(OCCCCCC(=O)N4CCC5(CC4)CCN(c4cncc(Nc6ncc(Cl)c(-c7cccc(-c8ccccc8)c7)n6)c4)C5=O)ccc3C2=O)C(=O)N1` (stereo not drawn) [Compound 88, 3-(5-((6-(2-(5-((4-([1,1′-biphenyl]-3-yl)-5-chloropyrimidin-2-yl)amino)pyridin-3-yl)-1-oxo-2,8-diazaspiro[4.5]decan-8-yl)-6-oxohexyl)oxy)-1-oxoisoindolin-2-yl)piperidine-2,6-dione], under 500 nM; under `O=C1CCC(N2Cc3c(OCCCCCCCCCC(=O)N4CCC5(CC4)CCN(c4cncc(Nc6ncc(Cl)c(-c7cccc(-c8ccccc8)c7)n6)c4)C5=O)cccc3C2=O)C(=O)N1` (stereo not drawn) [Compound 69, 3-(4-((10-(2-(5-((4-([1,1′-biphenyl]-3-yl)-5-chloropyrimidin-2-yl)amino)pyridin-3-yl)-1-oxo-2,8-diazaspiro[4.5]decan-8-yl)-10-oxodecyl)oxy)-1-oxoisoindolin-2-yl)piperidine-2,6-dione], under 500 nM. `O=C1CCC(N2Cc3cc(C4CCN(C(=O)CN5CCC6(CC5)CCN(c5cncc(Nc7ncc(Cl)c(-c8cccc(C9CC9)c8)n7)c5)C6=O)CC4)ccc3C2=O)C(=O)N1` (stereo not drawn) [Compound 198, 3-(5-(1-(2-(2-(5-((5-chloro-4-(3-cyclopropylphenyl)pyrimidin-2-yl)amino)pyridin-3-yl)-1-oxo-2,8-diazaspiro[4.5]decan-8-yl)acetyl)piperidin-4-yl)-1-oxoisoindolin-2-yl)piperidine-2,6-dione]: the DC50 was under 500 nM. Under `O=C1CCC(Nc2ccc(N3CCC(CC(=O)N4CCC5(CC4)CCN(c4cncc(Nc6ncc(Cl)c(N7CCOC(c8ccccc8)C7)n6)c4)C5=O)CC3)cc2)C(=O)N1` (stereo not drawn) [Compound 181, 3-((4-(4-(2-(2-(5-((5-chloro-4-(2-phenylmorpholino)pyrimidin-2-yl)amino)pyridin-3-yl)-1-oxo-2,8-diazaspiro[4.5]decan-8-yl)-2-oxoethyl)piperidin-1-yl)phenyl)amino)piperidine-2,6-dione] stands under 500 nM. The same measure for `O=C1CCC(N2C(=O)c3ccc(OCCCCCC(=O)N4CCC5(CC4)CCN(c4cncc(Nc6ncc(Cl)c(-c7cccc(-c8ccccc8)c7)n6)c4)C5=O)cc3C2=O)C(=O)N1` (stereo not drawn) [Compound 75, 5-((6-(2-(5-((4-([1,1′-biphenyl]-3-yl)-5-chloropyrimidin-2-yl)amino)pyridin-3-yl)-1-oxo-2,8-diazaspiro[4.5]decan-8-yl)-6-oxohexyl)oxy)-2-(2,6-dioxopiperidin-3-yl)isoindoline-1,3-dione]: under 500 nM. The same measure for `O=C1CCC(N2C(=O)c3ccc(OCCCCCCC(=O)N4CCC5(CC4)CCN(c4cncc(Nc6ncc(Cl)c(-c7cccc(-c8ccccc8)c7)n6)c4)C5=O)cc3C2=O)C(=O)N1` (stereo not drawn) [Compound 74, 5-((7-(2-(5-((4-([1,1′-biphenyl]-3-yl)-5-chloropyrimidin-2-yl)amino)pyridin-3-yl)-1-oxo-2,8-diazaspiro[4.5]decan-8-yl)-7-oxoheptyl)oxy)-2-(2,6-dioxopiperidin-3-yl)isoindoline-1,3-dione]: under 500 nM; for `CN1CCC(n2cc(-c3nc(Nc4cncc(N5CCC6(CCN(C(=O)CC7CCN(c8ccc(NC9CCC(=O)NC9=O)cc8)CC7)CC6)C5=O)c4)ncc3Cl)cn2)CC1` (stereo not drawn) [Compound 193, 3-((4-(4-(2-(2-(5-((5-chloro-4-(1-(1-methylpiperidin-4-yl)-1H-pyrazol-4-yl)pyrimidin-2-yl)amino)pyridin-3-yl)-1-oxo-2,8-diazaspiro[4.5]decan-8-yl)-2-oxoethyl)piperidin-1-yl)phenyl)amino)piperidine-2,6-dione]: under 500 nM; for `O=C1CCC(N2Cc3cc(OCCCCCCCN4CCC5(CC4)CCN(c4cncc(Nc6ncc(Cl)c(-c7cccc(-c8ccccc8)c7)n6)c4)C5=O)ccc3C2=O)C(=O)N1` (stereo not drawn) [Compound 54, 3-(5-((7-(2-(5-((4-([1,1′-biphenyl]-3-yl)-5-chloropyrimidin-2-yl)amino)pyridin-3-yl)-1-oxo-2,8-diazaspiro[4.5]decan-8-yl)heptyl)oxy)-1-oxoisoindolin-2-yl)piperidine-2,6-dione]: under 500 nM. For the molecule `O=C1CCC(N2Cc3c(OCCCCCCCCC(=O)N4CCC5(CC4)CCN(c4cncc(Nc6ncc(Cl)c(-c7cccc(-c8ccccc8)c7)n6)c4)C5=O)cccc3C2=O)C(=O)N1` (stereo not drawn) [Compound 71, 3-(4-((9-(2-(5-((4-([1,1′-biphenyl]-3-yl)-5-chloropyrimidin-2-yl)amino)pyridin-3-yl)-1-oxo-2,8-diazaspiro[4.5]decan-8-yl)-9oxononyl)oxy)-1-oxoisoindolin-2-yl)piperidine-2,6-dione], the DC50 is under 500 nM. The same measure for `O=C1CCC(N2C(=O)c3ccc(OCCCCCCCCC(=O)N4CCC5(CC4)CCN(c4cncc(Nc6ncc(Cl)c(-c7cccc(-c8ccccc8)c7)n6)c4)C5=O)cc3C2=O)C(=O)N1` (stereo not drawn) [Compound 72, 5-((9-(2-(5-((4-([1,1′-biphenyl]-3-yl)-5-chloropyrimidin-2-yl)amino)pyridin-3-yl)-1-oxo-2,8-diazaspiro[4.5]decan-8-yl)-9-oxononyl)oxy)-2-(2,6-dioxopiperidin-3-yl)isoindoline-1,3-dione]: under 500 nM; for `O=C1CCC(Nc2ccc(N3CCC(CC(=O)N4CCC5(CC4)CCN(c4cncc(Nc6ncc(Cl)c(-c7cccc(N8CCCC8)c7)n6)c4)C5=O)CC3)cc2)C(=O)N1` (stereo not drawn) [Compound 184, 3-((4-(4-(2-(2-(5-((5-chloro-4-(3-(pyrrolidin-1-yl)phenyl)pyrimidin-2-yl)amino)pyridin-3-yl)-1-oxo-2,8-diazaspiro[4.5]decan-8-yl)-2-oxoethyl)piperidin-1-yl)phenyl)amino)piperidine-2,6-dione]: under 500 nM. The same measure for `O=C1CCC(N2Cc3cc(OCCCCCCCCC(=O)N4CCC5(CC4)CCN(c4cncc(Nc6ncc(Cl)c(-c7cccc(-c8ccccc8)c7)n6)c4)C5=O)ccc3C2=O)C(=O)N1` (stereo not drawn) [Compound 62, 3-(5-((9-(2-(5-((4-([1,1′-biphenyl]-3-yl)-5-chloropyrimidin-2-yl)amino)pyridin-3-yl)-1-oxo-2,8-diazaspiro[4.5]decan-8-yl)-9-oxononyl)oxy)-1-oxoisoindolin-2-yl)piperidine-2,6-dione]: under 500 nM; for `Cn1c(=O)n(C2CCC(=O)NC2=O)c2ccc(C3CCN(CC(=O)N4CCC(C(=O)Nc5cncc(Nc6ncc(Cl)c(-c7cccc(C8CC8)c7)n6)c5)CC4)CC3)cc21` (stereo not drawn) [Compound 210, N-(5-((5-chloro-4-(3-cyclopropylphenyl)pyrimidin-2-yl)amino)pyridin-3-yl)-1-(2-(4-(1-(2,6-dioxopiperidin-3-yl)-3-methyl-2-oxo-2,3-dihydro-1H-benzo[d]imidazol-5-yl)piperidin-1-yl)acetyl)piperidine-4-carboxamide]: under 500 nM; for `O=C1CCC(Nc2ccc(C3CCN(CC(=O)N4CCC5(CC4)CCN(c4cncc(Nc6ncc(Cl)c(-c7cccc(C8CCCC8)c7)n6)c4)C5=O)CC3)cc2)C(=O)N1` (stereo not drawn) [Compound 192, 3-((4-(1-(2-(2-(5-((5-chloro-4-(3-cyclopentylphenyl)pyrimidin-2-yl)amino)pyridin-3-yl)-1-oxo-2,8-diazaspiro[4.5]decan-8-yl)-2-oxoethyl)piperidin-4-yl)phenyl)amino)piperidine-2,6-dione]: under 500 nM. The same measure for `O=C1CCC(Nc2ccc(N3CCC(CC(=O)N4CCC5(CC4)CCN(c4cncc(Nc6ncc(Cl)c(-c7cccc(C8CCCC8)c7)n6)c4)C5=O)CC3)cc2)C(=O)N1` (stereo not drawn) [Compound 191, 3-((4-(4-(2-(2-(5-((5-chloro-4-(3-cyclopentylphenyl)pyrimidin-2-yl)amino)pyridin-3-yl)-1-oxo-2,8-diazaspiro[4.5]decan-8-yl)-2-oxoethyl)piperidin-1-yl)phenyl)amino)piperidine-2,6-dione]: under 500 nM.
